These results are taken from article PMC6225212, “Synthesis and Pharmacological Evaluation of Novel Silodosin-Based Arylsulfonamide Derivatives as α1A/α1D-Adrenergic Receptor Antagonist with Potential Uroselective Profile” (Molecules : A Journal of Synthetic Chemistry and Natural …, 2018).

As a reminder, the Ki is the equilibrium dissociation constant of an inhibitor or competing ligand from its target. The IC50 is the concentration at which inhibition is half-maximal. Usually EC50 stands for the concentration needed to bring the measured effect to its halfway point.

One assay deals with α1-ARs. Nature of the assay: Radioligand binding, displacement of [3H]-Prazosin from α1-ARs on rat cerebral cortex. As to conditions: for Sα2/α1 (ratio of affinity for α2- and α1-ARs): Ki α2 / Ki α1; for Ki: [3H]-Prazosin, rat cerebral cortex, ± SEM, two independent experiments. The protocol:
(§1) The pharmacological profile of the new compounds was assessed in radioligand-binding assays as the ability to displace [^3H]-Prazosin or [^3H]-Clonidine from α1- and α2-ARs, respectively, on rat cerebral cortex. The inhibition constants (Ki) were calculated from the Cheng-Prusoff equation [24].
(§2) The affinity of the obtained compounds was evaluated by radioligand-binding assays (the ability to displace [^3H]-Prazosin and [^3H]-Clonidine from α1- and α2-ARs, respectively) on rat cerebral cortex. The brains are homogenized in 20 volumes of an ice-cold 50 mM Tris-HCl buffer (pH 7.6) and is centrifuged (MPW Med. Instruments, Warsaw, Poland) at 20,000 g for 20 min (0–4 °C). The cell pellet is resuspended in the Tris-HCl buffer and centrifuged again. Radioligand-binding assays are performed in plates (MultiScreen/Millipore, Burlington, MA, USA). The final incubation mixture (final volume 300 µL) consisted of 240 µL of the membrane suspension, 30 µL of [^3H]-Prazosin (0.2 nM) or [^3H]-Clonidine (2 nM) solution, and 30 µL of the buffer containing seven to eight concentrations (10^−11 to 10^−4 M) of the tested compounds. For measuring the unspecific binding, phentolamine, 10 µM (in the case of [^3H]-Prazosin) and clonidine, and 10 µM (in the case of [^3H]-Clonidine), were applied. The incubation was terminated by rapid filtration over glass fiber filters (Whatman GF/C, Sigma-Aldrich) using a vacuum manifold (Millipore). The filters were then washed twice with the assay buffer and placed in scintillation vials with a liquid-scintillation cocktail. Radioactivity was measured in a WALLAC 1409 DSA liquid-scintillation counter (BioSurplus, San Diego, CA, USA). All the assays were made in duplicate.

The next assay has as its target α2-ARs. Nature of the assay: Radioligand binding, displacement of [3H]-Clonidine from α2-ARs on rat cerebral cortex. As to conditions: ± SEM, two independent experiments. The method, then: as §1, §2
In general terms: In a radioligand displacement assay an active substance lowers the binding of a labelled ligand.

Another assay concerns the target T1, α1A-ARs (Homo sapiens, UniProt P35348).
T1 sequence (P35348 1-466): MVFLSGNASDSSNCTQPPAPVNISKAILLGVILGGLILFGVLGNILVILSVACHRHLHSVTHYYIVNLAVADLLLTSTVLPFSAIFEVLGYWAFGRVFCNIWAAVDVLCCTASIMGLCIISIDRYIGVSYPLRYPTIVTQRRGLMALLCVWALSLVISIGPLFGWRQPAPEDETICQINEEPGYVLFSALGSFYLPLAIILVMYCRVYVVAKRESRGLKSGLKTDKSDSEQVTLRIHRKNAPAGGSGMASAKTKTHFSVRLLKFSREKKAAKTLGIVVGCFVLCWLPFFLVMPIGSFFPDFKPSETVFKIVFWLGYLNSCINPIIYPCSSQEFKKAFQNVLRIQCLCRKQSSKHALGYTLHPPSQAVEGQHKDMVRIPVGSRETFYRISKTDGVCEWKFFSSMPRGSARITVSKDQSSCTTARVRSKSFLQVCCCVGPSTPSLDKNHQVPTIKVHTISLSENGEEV
Nature of the assay: Intrinsic activity at α1A-ARs, β-lactamase reporter gene, FRET substrate. As to conditions: for α1A Profile: functional profile. Also on record: key to α1A Profile: ANT—antagonist; AGO—agonist. It counts as cell-based.

For another assay, the target named is T2, α1B-ARs (Homo sapiens, UniProt P35368).
T2 sequence (P35368 1-520): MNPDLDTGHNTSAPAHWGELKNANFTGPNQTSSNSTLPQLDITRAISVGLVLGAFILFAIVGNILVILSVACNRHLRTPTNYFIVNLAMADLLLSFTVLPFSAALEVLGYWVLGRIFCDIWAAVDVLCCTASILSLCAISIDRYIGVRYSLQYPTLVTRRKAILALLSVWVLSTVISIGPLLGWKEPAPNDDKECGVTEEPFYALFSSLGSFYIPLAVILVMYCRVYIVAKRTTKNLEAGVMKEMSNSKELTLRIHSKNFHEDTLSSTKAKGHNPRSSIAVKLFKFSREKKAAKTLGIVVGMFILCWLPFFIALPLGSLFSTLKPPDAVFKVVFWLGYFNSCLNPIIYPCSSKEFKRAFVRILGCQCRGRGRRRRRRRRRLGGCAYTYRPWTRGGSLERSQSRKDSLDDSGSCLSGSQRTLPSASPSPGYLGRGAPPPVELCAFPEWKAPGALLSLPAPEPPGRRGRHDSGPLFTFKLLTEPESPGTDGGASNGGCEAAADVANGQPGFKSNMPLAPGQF
Nature of the assay: Intrinsic activity at α1B-ARs, aequorin calcium mobilization luminescence. More on the design: key to α1B Profile: ANT—antagonist; AGO—agonist. It counts as cell-based. The following applies: for α1B Profile: functional profile. The method, then:
(§3) The intrinsic activity at α1A-ARs of the selected compounds was assessed by fluorescence detection (Invitrogen, Thermo Fisher Scientific, Carlsbad, CA, USA) of β-lactamase reporter genes using a FRET-enabled substrate. The intrinsic activity at α1B-ARs and α1D-ARs was determined by luminescence detection (PerkinElmer, Zaventem, Belgium) of calcium mobilization using the recombinant-expressed jellyfish photoprotein (Aequorin).
(§4) Intrinsic activity assay to α1B- and α1D-ARs was performed according to the manufacturer of the ready-to-use cells with stable expression of the α1B-adrenoreceptors and α1D-adrenoreceptors, respectively (PerkinElmer, Zaventem, Belgium). For measurement, cells (frozen, ready to use) were thawed and resuspended in 10 mL of assay buffer containing 5 µM coelenterazine h. This cells suspension was put in a 10 mL Falcon tube, fixed onto a rotating heel, and incubated for overnight at rt in the dark (8 rpm; 45° angle). Cells were diluted with Assay Buffer to 5000 cells/20 µL. Agonistic ligands 2 × (50 µL/well), diluted in Assay Buffer, were prepared in ½ white polystyrene area plates, and the cell suspension was dispensed in 50 µL volume on the ligands using the injector. The light emitted was recorded for 20 s. Cells with antagonist were incubated for 15 min at room temperature. Thereafter, 50 µL of agonist (3 × EC80 final concentration) was injected into the mix of cells and antagonist and the light emitted was recorded for 20 s.

The target of a further assay is T3, α1D-ARs (Homo sapiens, UniProt P25100).
T3 sequence (P25100 1-572): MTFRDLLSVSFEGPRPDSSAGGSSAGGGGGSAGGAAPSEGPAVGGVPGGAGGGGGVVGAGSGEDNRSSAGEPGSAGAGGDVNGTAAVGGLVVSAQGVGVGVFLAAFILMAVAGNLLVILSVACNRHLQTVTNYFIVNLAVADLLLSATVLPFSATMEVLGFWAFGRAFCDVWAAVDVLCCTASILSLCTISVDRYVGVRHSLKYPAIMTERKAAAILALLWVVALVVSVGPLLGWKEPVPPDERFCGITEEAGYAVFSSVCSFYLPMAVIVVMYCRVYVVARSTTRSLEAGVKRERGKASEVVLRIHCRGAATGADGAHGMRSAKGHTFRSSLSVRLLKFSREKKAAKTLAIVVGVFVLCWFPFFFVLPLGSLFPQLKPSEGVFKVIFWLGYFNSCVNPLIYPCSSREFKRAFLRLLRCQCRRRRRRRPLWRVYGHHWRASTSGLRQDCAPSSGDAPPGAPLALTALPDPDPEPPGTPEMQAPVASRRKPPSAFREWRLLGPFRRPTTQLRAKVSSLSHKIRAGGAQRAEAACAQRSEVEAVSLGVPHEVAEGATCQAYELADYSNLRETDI
Briefly: Intrinsic activity at α1D-ARs, aequorin calcium mobilization luminescence. In kind it is cell-based. More on the design: key to α1D Profile: ANT—antagonist; AGO—agonist. As to conditions: for IC50: antagonist mode; for α1D Profile: functional profile. The method, then: as §3, §4

[1] abbreviates: antagonist mode, three independent experiments.

Each structure is given as a SMILES string. Read-outs that look alike come from different tables or passages of the source.

Experimental for α1A-ARs: The intrinsic activity at α1A-ARs of the selected compounds was assessed by fluorescence detection (Invitrogen, Thermo Fisher Scientific, Carlsbad, CA, USA) of β-lactamase reporter genes using a FRET-enabled substrate. […] Intrinsic activity assay was performed according to the manufacturer of the assay kit (Invitrogen, Thermo Fisher Scientific corporation, Carlsbad, CA, USA). The cells were harvested and suspended in Assay Medium to a density of 312,500 cells/mL. Of the cell suspension, 32 µL per well was added to the Test Compound wells, the Unstimulated Control wells, and Stimulated Control wells and incubated per 16–24 h. […] Then, both the agonist and the antagonist plate were incubated in a humidified 37 °C/5% CO2 incubator for 5 h. After the incubation 8 µL of LiveBLAzer™-FRET B/G Substrate Mixture (CCF4-AM, Thermo Fisher Scientific corporation) was loaded cells in the absence of direct strong lighting, covered, and incubated at room temperature for 2 h.

Turning to `O=S(=O)(NCC1CCN(CCOc2ccccc2OCC(F)(F)F)CC1)c1ccc(F)cc1` [Compound 8, 4-Fluoro-N-[(1-{2-[(2,2,2-trifluoroethoxy)phenoxy]ethyl}piperidin-4-yl)methyl]benzenesulfonamide], the “Sα2/α1 (ratio of affinity for α2- and α1-ARs)” value in the assay with α1-ARs is given as 46. Besides, the Ki on α1-ARs worked out at 0.02 ± 0.002 µM; on α2-ARs, 0.919 ± 0.025 µM. The IC50 came out at 0.0038 µM on α1A-ARs (setting [1]), 0.0083 µM at α1B-ARs (setting [1]) and 0.0011 µM at α1D-ARs (three independent experiments). Further, the “α1A Profile” value at α1A-ARs was “ANT”. In addition, the “α1B Profile” value on α1B-ARs is recorded as “ANT”. Also, the EC50 at α1D-ARs (antagonist, as worded in abstract and text, read-out: EC50(α1D)) fell in the range of 0.0011 to 0.0027 µM. The “α1D Profile” value at α1D-ARs is reported as “ANT”.
As to `COc1ccc(Cl)cc1S(=O)(=O)NCC1CCN(CCOc2ccccc2OCC(F)(F)F)CC1` [Compound 11, 5-Chloro-2-methoxy-N-[(1-{2-[(2,2,2-trifluoroethoxy)phenoxy]ethyl}piperidin-4-yl)methyl]benzenesulfonamide], the “Sα2/α1 (ratio of affinity for α2- and α1-ARs)” value in the assay on α1-ARs is 12. For the same compound, the values for the Ki on α1-ARs and at α2-ARs were 0.095 ± 0.003 µM and 1.09 ± 0.062 µM, respectively.
In the same order, the values of `O=S(=O)(N[C@@H]1CCN(CCOc2ccccc2OCC(F)(F)F)C1)c1ccc(F)cc1` [Compound 13, (R)-4-Fluoro-N-(1-{2-[(2,2,2-trifluoroethoxy)phenoxy]ethyl}pyrrolidin-3-yl)benzenesulfonamide] are 9, 0.188 ± 0.003 µM and 1.69 ± 0.085 µM.
On the same counts, the results for `O=S(=O)(N[C@H]1CCN(CCOc2ccccc2OCC(F)(F)F)C1)c1ccc(F)cc1` [Compound 14, (S)-4-Fluoro-N-(1-{2-[(2,2,2-trifluoroethoxy)phenoxy]ethyl}pyrrolidin-3-yl)benzenesulfonamide] are over 70, 0.134 ± 0.016 µM and over 10 µM.
In the same order, the values of `O=S(=O)(N[C@@H]1CCN(CCOc2ccccc2OCC(F)(F)F)C1)c1cc(Cl)ccc1F` [Compound 15, (R)-5-Chloro-2-fluoro-N-(1-{2-[(2,2,2-trifluoroethoxy)phenoxy]ethyl}pyrrolidin-3-yl)benzenesulfonamide] are 7, 0.171 ± 0.004 µM and 1.19 ± 0.074 µM.
Consider `O=S(=O)(N[C@H]1CCN(CCOc2ccccc2OCC(F)(F)F)C1)c1cc(Cl)ccc1F` [Compound 16, (S)-5-Chloro-2-fluoro-N-(1-{2-[(2,2,2-trifluoroethoxy)phenoxy]ethyl}pyrrolidin-3-yl)benzenesulfonamide], for which the “Sα2/α1 (ratio of affinity for α2- and α1-ARs)” value in the assay with α1-ARs stood at 13. Also, the Ki on α1-ARs stood at 0.117 ± 0.01 µM; at α2-ARs, 1.47 ± 0.08 µM.
On the same counts, the results for `COc1ccc(S(=O)(=O)N[C@@H]2CCN(CCOc3ccccc3OCC(F)(F)F)C2)cc1OC` [Compound 17, (R)-3,4-Dimethoxy-N-(1-{2-[(2,2,2-trifluoroethoxy)phenoxy]ethyl}pyrrolidin-3-yl)benzenesulfonamide] are 4, 0.105 ± 0.007 µM and 0.435 ± 0.021 µM.
In the same order, the values of `COc1ccc(S(=O)(=O)N[C@H]2CCN(CCOc3ccccc3OCC(F)(F)F)C2)cc1OC` [Compound 18, (S)-3,4-Dimethoxy-N-(1-{2-[(2,2,2-trifluoroethoxy)phenoxy]ethyl}pyrrolidin-3-yl)benzenesulfonamide] are 16, 0.07 ± 0.001 µM and 1.14 ± 0.042 µM.
As for `CNC[C@H](O)c1cccc(O)c1` [phenylephrine, reference compound], the “α1A Profile” value at α1A-ARs is reported as “AGO ^b”. Moreover, at α1B-ARs, the “α1B Profile” value was “AGO”. Moreover, the EC50 on α1D-ARs (agonist mode, three independent experiments, read-out: α1D EC50) came out at 0.0121 µM. In addition, the “α1D Profile” value on α1D-ARs was “AGO”.
In the case of `COc1cc2nc(N3CCN(C(=O)C4CCCO4)CC3)nc(N)c2cc1OC` (stereo not drawn) [terazosin, reference compound], on α1A-ARs, the “α1A Profile” value is “ANT”. The “α1B Profile” value at α1B-ARs is listed as “ANT”. Moreover, the IC50 on α1D-ARs (three independent experiments) came out at 0.0002 µM. The “α1D Profile” value at α1D-ARs was “ANT”.
